Measured values taken from patent US6294674A, “Dibenzofuran sulfonamide matrix metalloproteinase inhibitors” (priority 1999, dated 2001).
Read-outs that look alike come from different tables or passages of the source.

Assays:
[1] = target: gelatinase A catalytic domain (MMP02); test: Thiopeptolide assay, gelatinase A catalytic domain (GCD, MMP02); assay type: biochemical
Protocol: (§1) Hydrolysis of the thiopeptolide substrate Ac-Pro-Leu-Gly-thioester-Leu-Leu-Gly-OEt (Bachem) is used as the primary screen to determine IC50 values for MMP inhibitors. A 100 μL reaction contains 1 mM 5,5'-dithiobis(2-nitrobenzoic acid) (DTNB), 100 μM substrate, 0.1% Brij, enzyme, and inhibitor in the appropriate reaction buffer. Activated full-length enzymes are assayed at 5 nM, Stromelysin Catalytic Domain (SCD) at 10 nM, and Gelatinase A Catalytic Domain (GaCD) at 1 nM. Inhibitors are screened from 100 μM to 1 nM. Full-length enzymes are assayed in 50 mM HEPES, 10 mM CaCl2, pH 7.0; SCD in 50 mM MES, 10 mM CaCl2, pH 6.0; and GaCD in 50 mM MOPS, 10 mM CaCl2, 10 μM ZnCl2, pH 7.0.

[2] = target: T1, stromelysin-1 catalytic domain (MMP03) (Homo sapiens, UniProt P08254); test: Thiopeptolide assay, stromelysin-1 catalytic domain (SCD, MMP03); assay type: biochemical
T1 construct: SCD (stromelysin-1 catalytic domain); made in house; host or cells: Escherichia coli
Protocol: as §1

MMP01 = target: T2, MMP01 (Homo sapiens, UniProt P03956); test: Thiopeptolide assay, MMP01; assay type: biochemical
T2 construct: purchased Washington University School of Medicine, St. Louis, Mo
T2 sequence (P03956 100-469): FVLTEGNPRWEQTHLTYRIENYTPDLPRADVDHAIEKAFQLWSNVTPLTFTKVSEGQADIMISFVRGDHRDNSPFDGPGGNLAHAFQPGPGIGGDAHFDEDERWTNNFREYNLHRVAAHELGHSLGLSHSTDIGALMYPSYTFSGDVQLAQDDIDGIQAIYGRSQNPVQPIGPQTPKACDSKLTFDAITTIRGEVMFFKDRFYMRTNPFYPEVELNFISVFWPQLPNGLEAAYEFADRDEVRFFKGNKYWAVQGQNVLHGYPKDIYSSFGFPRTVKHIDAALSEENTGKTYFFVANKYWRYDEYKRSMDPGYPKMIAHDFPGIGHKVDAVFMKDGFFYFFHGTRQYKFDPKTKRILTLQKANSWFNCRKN
Protocol: (§2) MMP01, MMP07, MMP09, and MMP13 activity was assayed in a method similar to MMP02 and MMP03 (SCD and GCD). MMP01 and MMP09 can be obtained from Washington University School of Medicine, St. Louis, Mo. MMP07 can be obtained in accordance with the known procedure set forth by Ye QZ, Johnson L. L., and Baragi V., "Gene Syntheses and Expression in E. coli for PUMP, a Human Matrix Metalloproteinase" Biochem. and Biophys. […] MMP 13 can be obtained in accordance with the known procedure set forth by Freije J. M. P., et al., "Molecular Cloning and Expression of Collegenase-3, a Novel Human Matrix Metalloproteinase Produced by Breast Carcinomas" J. Bio.
as §1

MMP07 = target: T3, MMP07 (Homo sapiens, UniProt P09237); test: Thiopeptolide assay, MMP07; assay type: biochemical
T3 construct: made in house; host or cells: Escherichia coli
T3 sequence (P09237 95-267): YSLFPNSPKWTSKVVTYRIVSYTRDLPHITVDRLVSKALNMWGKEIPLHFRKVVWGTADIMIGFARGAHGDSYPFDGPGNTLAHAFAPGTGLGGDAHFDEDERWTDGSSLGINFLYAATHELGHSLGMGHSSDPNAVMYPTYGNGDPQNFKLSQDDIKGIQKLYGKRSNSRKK
Protocol: as §2, §1

MMP-13CD = test: Thiopeptolide assay, MMP-13CD; assay type: biochemical, human; settings: Tables 2, 3, 5, 7
Protocol: IC50 values were determined using a thiopeptolide substrate, Ac-Pro-Leu-Gly-thioester-Leu-Leu-Gly-OEt (Ye Q.-Z., Johnson L. L., Hupe D. J., and Baragi V., "Purification and Characterization of the Human Stromelysin Catalytic Domain Expressed in Escherichia coli," Biochemistry, 1992;31:11231-11235). MMP01, MMP07, MMP09, and MMP13 activity was assayed in a method similar to MMP02 and MMP03 (SCD and GCD). MMP01 and MMP09 can be obtained from Washington University School of Medicine, St. Louis, Mo. MMP07 can be obtained in accordance with the known procedure set forth by Ye QZ, Johnson L. L., and Baragi V., "Gene Syntheses and Expression in E. coli for PUMP, a Human Matrix Metalloproteinase" Biochem. and Biophys. Res. Comm., 1992; 186:143-149. MMP 13 can be obtained in accordance with the known procedure set forth by Freije J. M. P., et al., "Molecular Cloning and Expression of Collegenase-3, a Novel Human Matrix Metalloproteinase Produced by Breast Carcinomas" J. Bio. Chem., 1994;269:16766-6773.
as §1, with “7.0. The change in absorbance at 405 riM is monitored on a ThermoMax microplate reader at room temperature continuously for 20 minutes.” for “7.0.”

[3] = Tables 2, 3, 5, 7, read-out: IC50 MMP-2CD
[4] = Tables 2, 3, 5, 7, read-out: IC50 MMP 3CD
[5] = Tables 2, 3, 5, 7, read-out: IC50 MMP1
[6] = Tables 2, 3, 5, 7, read-out: IC50 MMP-7
[7] = Table 1, GCD, read-out: IC50 MMP02
[8] = Table 1, SCD, read-out: IC50 MMP03

T1 sequence (P08254 100-272 limits assumed): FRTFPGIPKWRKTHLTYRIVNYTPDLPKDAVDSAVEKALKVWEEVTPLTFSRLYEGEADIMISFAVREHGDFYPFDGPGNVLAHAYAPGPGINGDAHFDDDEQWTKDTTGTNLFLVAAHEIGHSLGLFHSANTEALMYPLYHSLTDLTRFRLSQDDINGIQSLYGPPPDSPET

IC50 [1, 3] [µM] | IC50 [2, 4] [µM] | IC50 (MMP01; [5]) [µM] | IC50 (MMP07; [6]) [µM] | IC50 (MMP-13CD) [µM] | IC50 [1, 7] [µM] | IC50 [2, 8] [µM] | IC50 (MMP01; Table 1, read-out: IC50 MMP01) [µM] | IC50 (MMP07; Table 1, read-out: IC50 MMP07) [µM] | Compound
0.6 | 1 | > 100 | 64.9 | 1.7 | – | – | – | – | O=C(CC1=CCCC1)NCCCCC(NS(=O)(=O)c1ccc2oc3ccccc3c2c1)C(=O)O (centres unmarked) [Example A12]
– | – | – | – | – | 100 | 86 | – | – | CC(C)C[C@H](CNS(=O)(=O)c1ccc2oc3ccccc3c2c1)CC(=O)O [Example 2, 2(S)-3-[(Dibenzofuran-2-sulfonylamino)-methyl]-5-methyl-hexanoic acid]
0.3 | 0.7 | > 100 | 32.4 | 3.7 | – | – | – | – | O=C(CCC(NS(=O)(=O)c1ccc2oc3ccccc3c2c1)C(=O)O)Nc1ccc(Cl)cc1 (centres unmarked) [Example F12, 4-(4-Chloro-phenylcarbamoyl)-2-(dibenzofuran-2-sulfonylamino)-butyric acid]
0.9 | 1.8 | > 100 | 26.4 | 1.2 | – | – | – | – | CCC(C)CNC(=O)CCC(NS(=O)(=O)c1ccc2oc3ccccc3c2c1)C(=O)O (centres unmarked) [Example F2, 2-(Dibenzofuran-2-sulfonylamino)-4-(2-methyl-butylcarbamoyl)-butyric acid]
4.3 | 14.2 | > 100 | > 100 | 11.7 | – | – | – | – | O=C(O)C(CCCCNS(=O)(=O)c1cccc2ccccc12)NS(=O)(=O)c1ccc2oc3ccccc3c2c1 (centres unmarked) [Example D9, 2-(Dibenzofuran-2-sulfonylamino)-6-(naphthalene-1-sulfonylamino)-hexanoic acid]
0.4 | 1.1 | > 100 | 22.1 | 1 | – | – | – | – | O=C(CCC(NS(=O)(=O)c1ccc2oc3ccccc3c2c1)C(=O)O)NCc1cccc2ccccc12 (centres unmarked) [Example F16]
1.8 | 4.5 | > 100 | > 100 | 8.7 | – | – | – | – | O=C(CCc1ccc(Cl)cc1)NCCCCC(NS(=O)(=O)c1ccc2oc3ccccc3c2c1)C(=O)O (centres unmarked) [Example A28, 6-[3-(4-Chloro-phenyl)-propionylamino]-2-(dibenzofuran-2-sulfonylamino)-hexanoic acid]
9.1 | 8.1 | > 100 | > 100 | 20.5 | – | – | – | – | O=C(O)C(CCCCNC(=S)NC(c1ccccc1)c1ccccc1)NS(=O)(=O)c1ccc2oc3ccccc3c2c1 (centres unmarked) [Example B4, 6-(3-Benzhydryl-thioureido)-2-(dibenzofiuran-2-sulfonylamino)-hexanoic acid]
1.6 | 2.5 | > 100 | > 100 | 4.8 | – | – | – | – | O=C(COc1ccccc1)NCCCCC(NS(=O)(=O)c1ccc2oc3ccccc3c2c1)C(=O)O (centres unmarked) [Example A8, 2-(Dibenzofuran-2-sulfonylamino)-6-(2-phenoxy-acetylamino)-hexanoic acid]
0.6 | 1.4 | > 100 | > 100 | 4.2 | – | – | – | – | O=C(O)C(CCCCNC(=O)C1(c2ccccc2)CC1)NS(=O)(=O)c1ccc2oc3ccccc3c2c1 (centres unmarked) [Example A38, 2-(Dibenzofuran-2-sulfonylamino)-6-(1-phenyl-cyclopropanecarbonylamino)-hexanoic acid]
0.7 | 0.9 | > 100 | 53.3 | 4.4 | – | – | – | – | COc1ccc(CCC(=O)NCCCCC(NS(=O)(=O)c2ccc3oc4ccccc4c3c2)C(=O)O)cc1 (centres unmarked) [Example A17, 2-(Dibenzofuran-2-sulfonylamino)-6-[3-(4-methoxy-phenyl)-propionylamino]-hexanoic acid]
9.8 | 22.6 | > 100 | > 100 | 39.3 | – | – | – | – | CN(C)CCNC(=O)CCC(NS(=O)(=O)c1ccc2oc3ccccc3c2c1)C(=O)O (centres unmarked) [Example F9, 2-(Dibenzofuran-2-sulfonylamino)-4-(2-dimethylamino-ethylcarbamoyl)-butyricacid]
1.4 | 2.5 | > 100 | 92.1 | 3.3 | – | – | – | – | O=C(O)C(CCCCNS(=O)(=O)c1ccccc1)NS(=O)(=O)c1ccc2oc3ccccc3c2c1 (centres unmarked) [Example D6, 6-Benzenesulfonylamino-2-(dibenzofuran-2-sulfonylamino)-hexanoic acid]
0.9 | 0.5 | > 100 | 35.6 | 1.1 | – | – | – | – | O=C(Cc1cccs1)NCCCCC(NS(=O)(=O)c1ccc2oc3ccccc3c2c1)C(=O)O (centres unmarked) [Example A5, 2-(Dibenzofuran-2-sulfonylamino)-6-(2-thiophen-2-yl-acetylamino)-hexanoic acid]
– | – | – | – | – | 0.35 | 0.18 | 62 | 3.3 | O=C(NCCCC[C@H](NS(=O)(=O)c1ccc2oc3ccccc3c2c1)C(=O)O)OCc1ccccc1 [Example 3, 6-Benzyloxycarbonylamino-2-(dibenzofuran-2-sulfonylamino)-hexanoic acid]
5.5 | 6.5 | > 100 | > 100 | 34.4 | – | – | – | – | Cc1cc(OCCCC(=O)NCCCCC(NS(=O)(=O)c2ccc3oc4ccccc4c3c2)C(=O)O)ccc1Cl (centres unmarked) [Example A16, 6-[4-(4-Chloro-3-methyl-phenoxy)-butyrylamino]-2-(dibenzofuran-2-sulfonylamino)-hexanoic acid]
2.5 | 4.2 | > 100 | > 100 | 11.1 | – | – | – | – | O=C(O)C(CCCCNS(=O)(=O)C=Cc1ccccc1)NS(=O)(=O)c1ccc2oc3ccccc3c2c1 (centres unmarked) [Example D10, 2-(Dibenzofuran-2-sulfonylamino)-6-(2-phenyl-ethenesulfonylamino)-hexanoic acid]
2.1 | 2.7 | > 100 | 74.1 | 1.9 | – | – | – | – | O=C(CCC(NS(=O)(=O)c1ccc2oc3ccccc3c2c1)C(=O)O)NCc1ccccc1 (centres unmarked) [Example F10, 4-Benzylcarbamoyl-2-(dibenzofuran-2-sulfonylamino)-butyric acid]
